{"source": "patent US11136313B2", "about": "“Compounds, compositions, and methods for modulating CFTR” (Proteostasis Therapeutics, Inc., priority 2015, dated 2021)"}
{"target": "T1, ΔF508-CFTR (Homo sapiens, UniProt P13569, DEL508-508)", "T1 construct": "Primary lung epithelial cells homozygous for the Cystic Fibrosis-causing ΔF508 mutation were differentiated for a minimum of 4 weeks; endogenous in cells; host or cells: primary lung epithelial cells (hBE) homozygous for ΔF508, differentiated at an air-liquid interface", "T1 sequence (P13569 with tags, fused parts or gaps DEL508-508)": "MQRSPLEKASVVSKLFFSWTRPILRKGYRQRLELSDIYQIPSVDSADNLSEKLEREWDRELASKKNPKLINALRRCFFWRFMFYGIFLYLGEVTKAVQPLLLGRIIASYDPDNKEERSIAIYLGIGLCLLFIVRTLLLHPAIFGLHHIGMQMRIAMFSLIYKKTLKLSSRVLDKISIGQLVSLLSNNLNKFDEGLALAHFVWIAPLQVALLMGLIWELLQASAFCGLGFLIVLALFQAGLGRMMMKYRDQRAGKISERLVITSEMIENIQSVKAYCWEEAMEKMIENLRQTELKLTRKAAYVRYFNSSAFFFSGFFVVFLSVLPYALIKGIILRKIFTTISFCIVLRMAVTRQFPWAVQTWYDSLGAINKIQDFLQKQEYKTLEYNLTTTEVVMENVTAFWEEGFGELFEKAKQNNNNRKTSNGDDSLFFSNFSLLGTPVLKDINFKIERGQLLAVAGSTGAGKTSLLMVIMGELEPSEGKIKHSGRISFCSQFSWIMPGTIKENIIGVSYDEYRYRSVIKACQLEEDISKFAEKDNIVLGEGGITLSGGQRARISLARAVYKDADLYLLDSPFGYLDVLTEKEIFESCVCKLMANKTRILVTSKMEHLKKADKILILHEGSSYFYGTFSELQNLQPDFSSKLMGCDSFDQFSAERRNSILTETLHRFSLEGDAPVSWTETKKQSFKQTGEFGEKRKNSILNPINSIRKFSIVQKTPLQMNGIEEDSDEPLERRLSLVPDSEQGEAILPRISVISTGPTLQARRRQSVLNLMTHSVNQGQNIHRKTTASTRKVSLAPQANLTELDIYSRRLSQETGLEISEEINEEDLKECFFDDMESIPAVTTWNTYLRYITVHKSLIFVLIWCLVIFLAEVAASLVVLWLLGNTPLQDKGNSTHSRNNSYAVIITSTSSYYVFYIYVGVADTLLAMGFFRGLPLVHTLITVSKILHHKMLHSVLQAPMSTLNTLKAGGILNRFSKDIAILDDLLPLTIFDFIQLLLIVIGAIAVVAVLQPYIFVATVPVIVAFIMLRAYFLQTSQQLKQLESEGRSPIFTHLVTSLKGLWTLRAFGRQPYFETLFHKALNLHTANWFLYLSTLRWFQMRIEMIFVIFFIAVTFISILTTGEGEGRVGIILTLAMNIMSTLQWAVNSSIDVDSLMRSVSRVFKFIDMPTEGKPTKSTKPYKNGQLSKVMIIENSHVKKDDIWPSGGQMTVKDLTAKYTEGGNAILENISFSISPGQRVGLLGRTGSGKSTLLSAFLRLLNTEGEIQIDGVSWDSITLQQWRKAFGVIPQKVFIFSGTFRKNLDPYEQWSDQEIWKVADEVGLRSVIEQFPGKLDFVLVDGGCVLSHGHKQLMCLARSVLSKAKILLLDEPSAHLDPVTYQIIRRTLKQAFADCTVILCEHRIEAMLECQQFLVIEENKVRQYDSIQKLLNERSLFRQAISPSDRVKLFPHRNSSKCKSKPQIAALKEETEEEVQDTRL", "assay": "hBE equivalent current (Ieq) assay: AUC of equivalent chloride current after forskolin/VX-770 in primary lung epithelial cells homozygous for ΔF508", "type": "cell-based", "conditions": "relative to CFTR amplifier (Compound A)+VX-809 (3 uM), compound at 10 uM and Compound A at 3 uM, 24 h treatment", "in_short": "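ΔF508/ΔF508 primary human bronchial epithelia, differentiated ≥4 weeks at air-liquid interface, treated basolaterally with compound for 24 h at 37 °C. Transepithelial voltage and conductance by 24-channel current clamp at 36 °C: benzamil, then forskolin plus VX-770 for 27 min, then bumetanide; AUC of equivalent chloride current over vehicle.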"}
{"smiles": "Cc1c(-c2cc(C(=O)[O-])c3c(O[C@@H](C)c4ccc(S(C)(=O)=O)cc4)ccc(C)c3n2)oc2ccccc12.[Na+]", "note": "[Compound 230, Sodium 5-[(1S)-1-(4-methanesulfonylphenyl)ethoxy]-8-methyl-2-(3-methyl-1-benzofuran-2-yl)quinoline-4-carboxylate]", "Activity": "++ (activity>50% of CFTR amplifier+VX-809 (3 uM) with compound at 10 uM and Compound A at 3 uM)"}
{"smiles": "Cc1c(-c2cc(C(=O)[O-])c3c(O[C@H](C)c4ccc(C#N)cc4)ccc(C)c3n2)oc2ccccc12.[Na+]", "note": "[Compound 233]", "Activity": "++ (activity>50% of CFTR amplifier+VX-809 (3 uM) with compound at 10 uM and Compound A at 3 uM)"}
{"smiles": "Cc1c(-c2cc(C(=O)[O-])c3c(O[C@@H](C)c4ccc(C#N)cc4)ccc(C)c3n2)oc2ccccc12.[Na+]", "note": "[Compound 234]", "Activity": "++ (activity>50% of CFTR amplifier+VX-809 (3 uM) with compound at 10 uM and Compound A at 3 uM)"}
{"smiles": "Cc1c(-c2cc(C(=O)[O-])c3c(O[C@H](C)c4ccc(OC(F)F)cc4)ccc(C)c3n2)oc2ccccc12.[Na+]", "note": "[Compound 235]", "Activity": "++ (activity>50% of CFTR amplifier+VX-809 (3 uM) with compound at 10 uM and Compound A at 3 uM)"}
{"smiles": "Cc1c(-c2cc(C(=O)[O-])c3c(O[C@@H](C)c4ccc(OC(F)F)cc4)ccc(C)c3n2)oc2ccccc12.[Na+]", "note": "[Compound 236]", "Activity": "++ (activity>50% of CFTR amplifier+VX-809 (3 uM) with compound at 10 uM and Compound A at 3 uM)"}
{"smiles": "Cc1c(-c2cc(C(=O)[O-])c3c(O[C@H](C)c4ccc(S(N)(=O)=O)cc4)ccc(C)c3n2)oc2ccccc12.[Na+]", "note": "[Compound 237, Sodium 8-Methyl-2-(3-methyl-1-benzofuran-2-yl)-5-[(1R)-1-(4-sulfamoylphenyl)ethoxy]quinoline-4-carboxylate]", "Activity": "+ (activity<50% of an CFTR amplifier (Compound A)+VX-809 (3 uM) with compound at 10 uM and Compound A at 3 uM)"}
{"smiles": "Cc1c(-c2cc(C(=O)[O-])c3c(O[C@@H](C)c4ccc(S(N)(=O)=O)cc4)ccc(C)c3n2)oc2ccccc12.[Na+]", "note": "[Compound 238, Sodium 8-Methyl-2-(3-methyl-1-benzofuran-2-yl)-5-[(1S)-1-(4-sulfamoylphenyl)ethoxy]quinoline-4-carboxylate]", "Activity": "++ (activity>50% of CFTR amplifier+VX-809 (3 uM) with compound at 10 uM and Compound A at 3 uM)"}
{"smiles": "CNS(=O)(=O)c1ccc([C@@H](C)Oc2ccc(C)c3nc(-c4oc5ccccc5c4C)cc(C(=O)[O-])c23)cc1.[Na+]", "note": "[Compound 239, Sodium 8-Methyl-2-(3-methyl-l-benzofuran-2-yl)-5-[(1R)-1-[4-(methylsulfamoyl)phenyl]ethoxy]quinoline-4-carboxylate]", "Activity": "++ (activity>50% of CFTR amplifier+VX-809 (3 uM) with compound at 10 uM and Compound A at 3 uM)"}
{"smiles": "CNS(=O)(=O)c1ccc([C@H](C)Oc2ccc(C)c3nc(-c4oc5ccccc5c4C)cc(C(=O)[O-])c23)cc1.[Na+]", "note": "[Compound 240, Sodium 8-Methyl-2-(3-methyl-1-benzofuran-2-yl)-5-[(1S)-1-[4-(methylsulfamoyl)phenyl]ethoxy]quinoline-4-carboxylate]", "Activity": "++ (activity>50% of CFTR amplifier+VX-809 (3 uM) with compound at 10 uM and Compound A at 3 uM)"}
{"smiles": "Cc1c(-c2cc(C(=O)[O-])c3c(O[C@@H](C)C4CCCCC4)ccc(C)c3n2)oc2ccccc12.[Na+]", "note": "[Compound 244]", "Activity": "++ (activity>50% of CFTR amplifier+VX-809 (3 uM) with compound at 10 uM and Compound A at 3 uM)"}
{"smiles": "Cc1c(-c2cc(C(=O)[O-])c3c(O[C@H](C)C4CCOCC4)ccc(C)c3n2)oc2ccccc12.[Na+]", "note": "[Compound 245, Sodium 5-((1R)-1-(tetrahydro-2H-pyran-4-yl)ethoxy)-8-methyl-2-(3-methyl-1-benzofuran-2-yl)quinoline-4-carboxylate]", "Activity": "++ (activity>50% of CFTR amplifier+VX-809 (3 uM) with compound at 10 uM and Compound A at 3 uM)"}
{"smiles": "Cc1c(-c2cc(C(=O)[O-])c3c(O[C@@H](C)C4CCOCC4)ccc(C)c3n2)oc2ccccc12.[Na+]", "note": "[Compound 246, Sodium 5-((1S)-1-(tetrahydro-2H-pyran-4-yl)ethoxy)-8-methyl-2-(3-methyl-1-benzofuran-2-yl)quinoline-4-carboxylate]", "Activity": "++ (activity>50% of CFTR amplifier+VX-809 (3 uM) with compound at 10 uM and Compound A at 3 uM)"}
{"smiles": "Cc1c(-c2cc(C(=O)[O-])c3c(O[C@H](C)C4CCN(S(C)(=O)=O)CC4)ccc(C)c3n2)oc2ccccc12.[Na+]", "note": "[Compound 247, Sodium 5-[(1R)-1-(1-Methanesulfonylpiperidin-4-yl)ethoxy]-8-methyl-2-(3-methyl-1-benzofuran-2-yl)quinoline-4-carboxylate]", "Activity": "++ (activity>50% of CFTR amplifier+VX-809 (3 uM) with compound at 10 uM and Compound A at 3 uM)"}
{"smiles": "Cc1c(-c2cc(C(=O)[O-])c3c(O[C@@H](C)C4CCN(S(C)(=O)=O)CC4)ccc(C)c3n2)oc2ccccc12.[Na+]", "note": "[Compound 248, Sodium 5-[(1S)-1-(1-Methanesulfonylpiperidin-4-yl)ethoxy]-8-methyl-2-(3-methyl-1-benzofuran-2-yl)quinoline-4-carboxylate]", "Activity": "++ (activity>50% of CFTR amplifier+VX-809 (3 uM) with compound at 10 uM and Compound A at 3 uM)"}
{"smiles": "Cc1c(-c2cc(C(=O)[O-])c3c(O[C@@H]4CCc5ccccc5C4)ccc(C)c3n2)oc2ccccc12.[Na+]", "note": "[Compound 249]", "Activity": "++ (activity>50% of CFTR amplifier+VX-809 (3 uM) with compound at 10 uM and Compound A at 3 uM)"}
{"smiles": "Cc1c(-c2cc(C(=O)[O-])c3c(O[C@H]4CCc5ccccc5C4)ccc(C)c3n2)oc2ccccc12.[Na+]", "note": "[Compound 253]", "Activity": "++ (activity>50% of CFTR amplifier+VX-809 (3 uM) with compound at 10 uM and Compound A at 3 uM)"}
{"smiles": "Cc1c(-c2cc(C(=O)[O-])c3c(O[C@H](C)c4ccn5nccc5c4)ccc(C)c3n2)oc2ccccc12.[Na+]", "note": "[Compound 257, Sodium 8-Methyl-2-((1R)-3-methyl-1-benzofuran-2-yl)-5-(1-[pyrazolo[1,5-a]pyridin-5-yl]ethoxy)quinoline-4-carboxylate]", "Activity": "++ (activity>50% of CFTR amplifier+VX-809 (3 uM) with compound at 10 uM and Compound A at 3 uM)"}
{"smiles": "Cc1c(-c2cc(C(=O)[O-])c3c(O[C@@H](C)c4ccn5nccc5c4)ccc(C)c3n2)oc2ccccc12.[Na+]", "note": "[Compound 258, Sodium 8-Methyl-2-((1S)-3-methyl-1-benzofuran-2-yl)-5-(1-[pyrazolo[1,5-a]pyridin-5-yl]ethoxy)quinoline-4-carboxylate]", "Activity": "++ (activity>50% of CFTR amplifier+VX-809 (3 uM) with compound at 10 uM and Compound A at 3 uM)"}
{"smiles": "Cc1c(-c2cc(C(=O)[O-])c3c(OCc4ccc(S(C)(=O)=O)cc4)ccc(C)c3n2)oc2ccccc12.[Na+]", "note": "[Compound 263]", "Activity": "++ (activity>50% of CFTR amplifier+VX-809 (3 uM) with compound at 10 uM and Compound A at 3 uM)"}
{"smiles": "Cc1c(-c2cc(C(=O)[O-])c3c(OCc4ccc(S(C)(=O)=O)cc4)ccc(C)c3n2)sc2ccccc12.[Na+]", "note": "[Compound 264]", "Activity": "++ (activity>50% of CFTR amplifier+VX-809 (3 uM) with compound at 10 uM and Compound A at 3 uM)"}
{"smiles": "Cc1c(-c2cc(C(=O)[O-])c3c(O[C@H](C)c4ccc(S(C)(=O)=O)cc4)ccc(C)c3n2)sc2ccccc12.[Na+]", "note": "[Compound 265]", "Activity": "++ (activity>50% of CFTR amplifier+VX-809 (3 uM) with compound at 10 uM and Compound A at 3 uM)"}
{"smiles": "Cc1c(-c2cc(C(=O)[O-])c3c(O[C@@H](C)c4ccc(S(C)(=O)=O)cc4)ccc(C)c3n2)sc2ccccc12.[Na+]", "note": "[Compound 266]", "Activity": "++ (activity>50% of CFTR amplifier+VX-809 (3 uM) with compound at 10 uM and Compound A at 3 uM)"}
{"smiles": "Cc1c(-c2cc(-c3cc(O)[nH]n3)c3c(O[C@H](C)c4ccccc4)ccc(C)c3n2)oc2ccccc12", "note": "[Compound 274]", "Activity": "+ (activity<50% of an CFTR amplifier (Compound A)+VX-809 (3 uM) with compound at 10 uM and Compound A at 3 uM)"}
{"smiles": "Cc1c(-c2cc(CC(=O)O)c3c(OC(C)c4ccccc4)ccc(C)c3n2)oc2ccccc12", "note": "(centres unmarked) [Compound 276, 2-[8-Methyl-2-(3-methyl-1-benzofuran-2-yl)-5-(1-phenylethoxy)quinolin-4-yl]acetic Acid]", "Activity": "++ (activity>50% of CFTR amplifier+VX-809 (3 uM) with compound at 10 uM and Compound A at 3 uM)"}
{"smiles": "Cc1c(-c2cc(C(=O)[O-])c3c(OC4CC(C)C4)ccc(C)c3n2)sc2ccccc12.[Na+]", "note": "(centres unmarked) [Compound 277, Sodium 8-Methyl-2-(3-methyl-1-benzothiophen-2-yl)-5-(3-methylcyclobutoxy)quinoline-4-carboxylate]", "Activity": "++ (activity>50% of CFTR amplifier+VX-809 (3 uM) with compound at 10 uM and Compound A at 3 uM)"}
{"smiles": "Cc1c(-c2cc(C(=O)[O-])c3c(OCc4ccccc4C#N)ccc(C)c3n2)sc2ccccc12.[Na+]", "note": "[Compound 280]", "Activity": "++ (activity>50% of CFTR amplifier+VX-809 (3 uM) with compound at 10 uM and Compound A at 3 uM)"}
{"smiles": "Cc1c(-c2cc(C(=O)[O-])c3c(O[C@H]4C[C@H](c5ccccc5)C4)ccc(C)c3n2)oc2ccccc12.[Na+]", "note": "[Compound 281, Sodium 8-Methyl-2-(3-methyl-1-benzofuran-2-yl)-5-[(1r,3r)-3-phenylcyclobutoxy]quinoline-4-carboxylate]", "Activity": "++ (activity>50% of CFTR amplifier+VX-809 (3 uM) with compound at 10 uM and Compound A at 3 uM)"}
{"smiles": "Cc1c(-c2cc(C(=O)[O-])c3c(O[C@H]4C[C@@H](c5ccccc5)C4)ccc(C)c3n2)oc2ccccc12.[Na+]", "note": "[Compound 282, Sodium 8-Methyl-2-(3-methyl-1-benzofuran-2-yl)-5-[(1s,3s)-3-phenylcyclobutoxy]quinoline-4-carboxylate]", "Activity": "++ (activity>50% of CFTR amplifier+VX-809 (3 uM) with compound at 10 uM and Compound A at 3 uM)"}
{"smiles": "Cc1c(-c2cc(C(=O)[O-])c3c(O[C@H]4C[C@H](c5ccccc5)C4)ccc(C)c3n2)sc2ccccc12.[Na+]", "note": "[Compound 283, Sodium 8-Methyl-2-(3-methyl-1-benzothiophen-2-yl)-5-[(1r,3r)-3-phenylcyclobutoxy]quinoline-4-carboxylate]", "Activity": "++ (activity>50% of CFTR amplifier+VX-809 (3 uM) with compound at 10 uM and Compound A at 3 uM)"}
